Assay: Antagonist activity at CXCR3 assessed as ITAC-mediated migration of human PBMC in presence of 100% human plasma

IC50 [µM] | SMILES
0.521 | CCS(=O)(=O)CCN(C(=O)Cc1ccc(F)c(C(F)(F)F)c1)[C@H](C)c1nc2ccccc2n1-c1ccc(C#N)cc1 [(R)-N-(1-(1-(4-cyanophenyl)-1H-benzo[d]imidazol-2-yl)ethyl)-N-(2-(ethylsulfonyl)ethyl)-2-(4-fluoro-3-(trifluoromethyl)phenyl)acetamide]
0.048 | CCS(=O)(=O)CCN(C(=O)Cc1ccc(F)c(C(F)(F)F)c1)[C@H](C)c1nc2ncccc2cc1-c1ccc(C#N)cc1 [(R)-N-(1-(3-(4-cyanophenyl)-1,8-naphthyridin-2-yl)ethyl)-N-(2-(ethylsulfonyl)ethyl)-2-(4-fluoro-3-(trifluoromethyl)phenyl)acetamide]
0.088 | CCS(=O)(=O)CCN(C(=O)Cc1ccc(F)c(C(F)(F)F)c1)[C@H](C)c1nc2c(c(=O)n1-c1ccc(C#N)cc1)CCCN2C [(R)-N-(1-(3-(4-cyanophenyl)-8-methyl-4-oxo-3,4,5,6,7,8-hexahydropyrido[2,3-d]pyrimidin-2-yl)ethyl)-N-(2-(ethylsulfonyl)ethyl)-2-(4-fluoro-3-(trifluoromethyl)phenyl)acetamide]
0.072 | CCS(=O)(=O)CCN(C(=O)Cc1ccc(F)c(C(F)(F)F)c1)[C@H](C)c1nc2ccccn2c1-c1ccc(C#N)cc1 [(R)-N-(1-(3-(4-cyanophenyl)H-imidazo[1,2-a]pyridin-2-yl)ethyl)-N-(2-(ethylsulfonyl)ethyl)-2-(4-fluoro-3-(trifluoromethyl)phenyl)acetamide]
0.072 | CCS(=O)(=O)CCN(C(=O)Cc1ccc(F)c(C(F)(F)F)c1)[C@H](C)c1nc2ccccc2cc1-c1ccc(C#N)cc1 [(R)-N-(1-(3-(4-cyanophenyl)quinolin-2-yl)ethyl)-N-(2-(ethylsulfonyl)ethyl)-2-(4-fluoro-3-(trifluoromethyl)phenyl)acetamide]

Source: BindingDB's records for doi:10.1016/j.bmcl.2007.11.060 (Amgen, 2008)
